The text below walks through data of patent US20050214279A1, “Methods for stimulating human leukocytes to kill bacteria, yeast and fungi in biofilms that have formed in/on prosthetic devices, catheters, tissues and organs in vivo” (priority 2003, published 2005).

Molecules are shown by their SMILES.

This assay concerns human neutrophils. Kind of assay: Neutrophil phagocytosis and killing of S. epidermidis in fibrin gels. The format is cell-based. To be noted: bacteria 10^5 to 2×10^8 CFU/ml, neutrophils 10^6 to 4×10^8/ml (data not shown). The protocol: To facilitate processing for microscopy we used 50% autologous plasma to form gels (40 μl in volume). To increase the frequency of neutrophils and S. epidermidis interactions the gels contained 4μ 10^8 neutrophils/ml (pre-incubated in medium with or without 20 μM cytochalasin D for 15 min at room temperature), 2μ 10^8 CFU/ml S. epidermidis, and 20 μM cytochalasin D, where indicated. The gels were incubated for 60 min at 37° C., fixed with 2.5% glutaraldehyde at 4° C., and then with 1% OsO4, stained en block with 1% uranyl acetate, dehydrated, and embedded in Epon. Sections ˜[…] thick were cut, stained sequentially with lead citrate and uranyl acetate, and examined in a Phillips 1200 transmission electron microscope. […]
In stirred suspensions, neutrophils must phagocytose bacteria to kill them. […] Second, cytochalasin D, which facilitates neutrophil secretions, blocked both phagocytosis (as measured by electron microscopy), and killing of S. epidermidis in fibrin gels at all bacterial (10^5 to 2×10^8 CFU/ml) and neutrophil concentrations (10^6 to 4×10^8/ml) tested (data not shown). […]

Regarding `C=C1[C@@H](C)[C@H]2[C@H](Cc3ccccc3)NC(=O)[C@]23[C@H](OC(C)=O)/C=C/[C@@](C)(O)C(=O)[C@@H](C)C/C=C/[C@H]3[C@@H]1O` [cytochalasin D], the “killing of S. epidermidis in fibrin gels” value is “blocked” and the “phagocytosis (as measured by electron microscopy)” value is “blocked”.
